Source: paper PMC3723905, “Glycogen Phosphorylase Inhibitor N-(3,5-Dimethyl-Benzoyl)-N’-(β-D-Glucopyranosyl)Urea Improves Glucose Tolerance under Normoglycemic and Diabetic Conditions and Rearranges Hepatic Metabolism” (PLoS ONE, 2013)

Target: T1, rabbit muscle glycogen phosphorylase (Oryctolagus cuniculus, UniProt P00489)
T1 construct: gene PYGM
T1 sequence (P00489 2-843): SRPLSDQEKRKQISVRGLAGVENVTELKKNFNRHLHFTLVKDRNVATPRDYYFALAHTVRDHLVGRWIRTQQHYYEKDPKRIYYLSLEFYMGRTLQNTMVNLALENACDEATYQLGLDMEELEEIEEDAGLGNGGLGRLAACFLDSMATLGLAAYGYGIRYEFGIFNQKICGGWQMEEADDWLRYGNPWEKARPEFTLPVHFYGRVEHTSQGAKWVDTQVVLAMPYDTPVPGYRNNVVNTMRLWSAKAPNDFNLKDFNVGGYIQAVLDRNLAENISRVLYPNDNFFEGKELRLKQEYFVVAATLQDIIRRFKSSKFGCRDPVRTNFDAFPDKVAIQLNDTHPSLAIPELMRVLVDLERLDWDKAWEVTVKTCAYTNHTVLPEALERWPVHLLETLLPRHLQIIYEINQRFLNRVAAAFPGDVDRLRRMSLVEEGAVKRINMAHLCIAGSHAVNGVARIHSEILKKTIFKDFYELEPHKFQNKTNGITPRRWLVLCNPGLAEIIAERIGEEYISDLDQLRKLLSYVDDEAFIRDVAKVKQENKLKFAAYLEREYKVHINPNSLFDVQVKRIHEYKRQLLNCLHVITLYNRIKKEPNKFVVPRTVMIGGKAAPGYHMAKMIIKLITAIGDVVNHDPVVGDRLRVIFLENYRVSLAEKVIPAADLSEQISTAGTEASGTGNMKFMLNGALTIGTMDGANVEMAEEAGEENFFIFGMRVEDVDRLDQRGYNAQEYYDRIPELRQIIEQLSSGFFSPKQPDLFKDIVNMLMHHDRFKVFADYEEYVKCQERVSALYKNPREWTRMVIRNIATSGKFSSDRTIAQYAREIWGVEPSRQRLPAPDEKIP
Assay: enzyme kinetics on purified rabbit muscle glycogen phosphorylase
Type: biochemical

A Ki of 930 ± 50 nM was found for Cc1cc(C)cc(C(=O)NC(=O)N[C@@H]2O[C@H](CO)[C@@H](O)[C@H](O)[C@H]2O)c1 [compound 4, N-(3,5-dimethyl-benzoyl)-N’-(β-D-glucopyranosyl)urea] in this work.
